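Values below derive from 48-hour exposures of cells grown in 96-well plates, with endpoints linearly interpolated between the two concentrations bracketing the appropriate inhibition level. TGI: concentration producing complete growth inhibition.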
Columns and labels:
Experiment in all cases: NCI-60 cell line screen, 48 h
CAKI-1 renal = test system: CAKI-1 renal
SN12C renal = test system: SN12C renal
786-0 renal = test system: 786-0 renal
HOP-92 NSCLC = test system: HOP-92 NSCLC
HOP-62 NSCLC = test system: HOP-62 NSCLC
MOLT-4 leukemia = test system: MOLT-4 leukemia
TK-10 renal = test system: TK-10 renal
NCI-H460 lung = test system: NCI-H460 lung
T-47D breast = test system: T-47D breast
HS 578T breast = test system: HS 578T breast
OVCAR-3 ovarian = test system: OVCAR-3 ovarian
SF-295 CNS = test system: SF-295 CNS
MDA-MB-231 breast = test system: MDA-MB-231 breast
HCT-116 colon = test system: HCT-116 colon
RPMI-8226 leukemia = test system: RPMI-8226 leukemia

Row | SMILES | TGI (CAKI-1 renal) [µM] | TGI (SN12C renal) [µM] | TGI (786-0 renal) [µM] | TGI (HOP-92 NSCLC) [µM] | TGI (HOP-62 NSCLC) [µM] | TGI (MOLT-4 leukemia) [µM] | TGI (TK-10 renal) [µM] | TGI (NCI-H460 lung) [µM] | TGI (T-47D breast) [µM] | TGI (HS 578T breast) [µM] | TGI (OVCAR-3 ovarian) [µM] | TGI (SF-295 CNS) [µM] | TGI (MDA-MB-231 breast) [µM] | TGI (HCT-116 colon) [µM] | TGI (RPMI-8226 leukemia) [µM]
1 | CC1=NN(c2nc(N)nc(CCl)n2)C(C)(C)C1 | 9.27 | > 68.7 | 15.9 | 45.7 | 19.1 | 50 | > 100 | 36.2 | > 100 | > 100 | > 51.8 | > 74.5 | 85.7 | > 70.1 | > 100
2 | COC(=O)c1ccc(C)cc1C1CN=NC12Cc1c(C)cccc1C2=O (stereo not drawn) | > 100 | > 95.6 | > 100 | 97 | > 100 | > 69.6 | > 100 | > 100 | 81.7 | > 100 | > 100 | > 100 | > 100 | > 86.9 | > 75.3
3 | COc1cc(C)cc2c1C(=O)C(NC(C)=O)=CC2=O | > 100 | > 100 | > 100 | > 100 | > 100 | 88.7 | > 100 | > 100 | > 100 | > 100 | > 100 | > 100 | > 100 | > 100 | > 100
4 | COc1cccc(-c2nc(N)c(C#N)c3c2CCS(=O)(=O)c2ccc(C)cc2-3)c1 | > 100 | > 100 | > 100 | > 100 | > 100 | 87.1 | > 100 | > 100 | > 100 | 48 | > 100 | > 100 | > 95.3 | > 100 | 
5 | c1ccc([P+](Cc2ccc(C[P+](c3ccccc3)(c3ccccc3)c3ccccc3)s2)(c2ccccc2)c2ccccc2)cc1 | > 100 | > 100 | > 100 | > 100 | > 100 | > 100 | > 100 | > 100 | > 100 | > 100 | > 100 | > 100 | > 100 | > 100 | > 100
6 | c1ccc2c(c1)n1c(N3CCCC3)[n+]3ccccc3c1c1c3cccc[n+]3c(N3CCCC3)n21 | > 100 | > 100 | > 100 | > 100 |  | > 100 | > 100 | > 100 | > 100 | > 100 | > 100 | > 100 | > 100 | > 100 | > 100
7 | CCOC(=O)C1=C(C)N(Cc2ccccc2)C2(O)C=CC(=O)C3C(=O)N(c4ccccc4)C(=O)C132 (stereo not drawn) | 4.17 | 10.6 | 3.27 | 7.96 | 5.52 | 5.54 | 9.33 | 4.77 | 9.27 | 34 | 6.08 | 13.7 | 12.1 | 2.49 | 3.1
8 | COC(=O)C1=CCC[C@H]2[C@@]1(COC(C)=O)CC[C@@H](C)[C@]2(C)CC(=O)c1ccoc1 | > 50 | > 50 | > 50 | 37.8 |  | 31.8 | > 50 | > 50 | 35.7 | > 50 | > 50 | > 50 | > 50 | 30.4 | 29.6
9 | CCOC(=O)C1Cc2ccc(C)cc2C1=O (stereo not drawn) | > 100 | > 100 | > 100 | > 100 | > 100 | > 100 | > 100 | > 100 | > 100 | > 100 | > 100 | > 100 | > 100 | > 100 | > 100
10 | c1ccc(CSCCC(SCc2ccccc2)SCc2ccccc2)cc1 | > 10 | > 10 | > 10 | > 10 | > 10 | > 10 | > 10 | > 10 | > 10 | > 10 | > 10 | > 10 | > 10 | > 10 | > 10
11 | COc1ccc(/C=C2\CC3C4CC=C5C[C@@H](N6CCCC6)CC[C@]5(C)C4CC[C@]3(C)[C@H]2O)cc1OC (stereo partly drawn) | 16.7 | 18.3 | 11.1 | 23.4 | 12.3 | 38.3 | 19.9 | 17.4 | 26.6 | 26.9 | 16.8 | 11.5 | 15.1 | 15.8 | 22.1
12 | O=C(Cn1c(C(=O)/C=C/c2ccc(Cl)c(Cl)c2)nc2ccccc21)c1ccccc1 |  | 34.4 | 44 | 96.1 | > 100 | > 100 | 76.6 | 39.4 | > 100 | 56.1 | 31.9 |  | 70.5 | 35.1 | > 100
13 | N#Cc1ccccc1NC(=O)C(O)C(O)C(O)C(O)C=O (stereo not drawn) | > 100 | > 100 | > 100 | > 100 |  | > 100 | > 100 | > 100 | > 100 | > 100 | > 100 | > 100 | > 100 | > 100 | 
14 | COC(=O)/C=C1\C(=O)Nc2ccc(Br)cc21 | 3.87 | 3 | 3.05 | 4.92 | 4.61 | 4.01 | 3.09 | 5.05 | 5.6 | > 34.4 | 2.95 | 5.07 | 6.64 | 2.64 | 4.48
15 | ON[C@@H]1C=C[C@H](n2cnc3c(NC4CC4)ncnc32)C1 | > 100 | > 100 | > 100 | > 100 | > 100 | > 100 | > 100 | > 100 | > 100 | > 100 | > 100 | > 100 | > 100 | > 100 | > 100
16 | Clc1nc(NC23CC4CC(CC(C4)C2)C3)nc(NC23CC4CC(CC(C4)C2)C3)n1 | > 100 | > 100 | > 100 | > 100 | > 100 | > 100 | > 100 | > 100 | > 89 | > 100 | > 100 | > 100 | > 76.3 | > 100 | > 100
17 | CCOC1OC(CO[Si](C)(C)C(C)(C)C)C(O)CC1n1ccc(=O)[nH]c1=O (stereo not drawn) | > 100 | > 100 | > 100 | > 100 |  | 69.1 | > 100 | > 100 | > 100 | > 100 | > 100 | > 100 | > 100 | 30.7 | > 100
18 | C#CCNC(CCCN=C(N)N)C(=O)O (stereo not drawn) | > 100 |  | > 100 | > 100 | > 100 | > 100 | > 100 | > 100 | > 100 | > 100 | > 100 | > 100 | > 100 | > 100 | > 100
19 | COc1ccccc1OC/C(N=Cc1cccnc1)=N/NC(=O)c1ccncc1 | > 100 |  | > 100 | > 100 | > 100 | > 100 | > 100 | > 100 | > 100 | > 100 | > 100 | > 100 | > 100 | > 100 | > 100
20 | CSc1cc(Cl)c(C(=O)Nc2ccccc2)cc1S(=O)(=O)n1cc[nH]c1=O | > 100 | > 100 | > 100 | > 100 | > 100 | > 100 | > 100 | > 100 | > 100 | > 100 | > 100 |  | > 100 | > 100 | > 100
21 | CCC(=O)NC(NNS(=O)(=O)c1ccc(C)cc1)(C(F)(F)F)C(F)(F)F | > 100 |  | > 100 | > 100 | > 100 | > 100 | > 100 | > 100 | > 100 | > 100 | > 10 | > 100 | > 100 | > 100 | > 100
22 | CC1(C)C2CCC1(C)C(NC(=O)COCCOCC(N)=O)C2 (stereo not drawn) | > 100 | > 100 | > 100 | > 100 | > 100 | > 100 | > 100 | > 100 | > 100 | > 100 | > 100 | > 100 | > 100 | > 100 | 
23 | COC(=O)c1c(C)c2c(c(C)c1O)OC(=O)c1c(C)cc(O)c(C=O)c1O2 |  | > 100 | > 100 | > 100 | > 100 | > 100 | > 100 | > 100 | > 100 | > 100 | > 100 | > 100 | > 100 | > 100 | > 100
24 | COP(=O)(OC)[C@@](O)(c1ccccc1)[C@@H](O)[C@@H](O)c1ccccc1 | > 100 | > 100 | > 100 | > 100 |  |  | > 100 | > 100 | > 100 | > 100 | > 100 | > 100 | > 100 | > 100 | 

— PubChem BioAssay (NCI)
